Broadly, the chromatographic logP is lipophilicity estimated from chromatographic retention.

Like-named read-outs stand apart in the source and are kept apart here.

Consider 11 compounds from patent US20020037898A1, “Topical micronutrient delivery system and uses thereof” (priority 2000, published 2002).

In data set [1] the test system is endothelial cells of the blood capillaries. Nature of the data set: Erythematous response / vasodilation at the site of topical application.
Experimental: (§1) After three days, skin was removed from both the site of application and from the abdomen of each animal, and the NAD content was analyzed.
For data set [2], the system named is endothelial cells of blood capillaries. Nature of the data set: Skin oxygen content by transcutaneous oxygen monitor after topical lotion. Type of data set: in vivo. Conditions: lotion applied topically for thirty minutes, then removed.
Text: In this experiment, a transcutaneous oxygen monitor has been used to determine oxygen content in the skin. A lotion containing the test compound was topically applied for thirty minutes. The lotion was then removed and the transcutaneous oxygen monitor was placed on the surface of the skin. […] Butyl benzoate was chosen as the co-ester.
Another data set has as its system skin of hairless mice. Nature of the data set: Skin NAD content following topical application of niacin pronutrients. Type of data set: in vivo, female hairless mice (HRS-J). The settings on record: for Effect on skin NAD content at site of application (in words): topical application, back of hairless mice; for Effect on NAD content of the abdomen (in words): where the pronutrient was not applied; for Skin NAD content of abdomen / Skin NAD content of abdomen, %: not the site of application; for Skin NAD content of abdomen: 1% in lotion applied to back once per day for three days; for Skin NAD content of abdomen / Skin NAD content of back: hairless mice; for Skin NAD content of abdomen, % / Skin NAD content of back, %: relative to lotion only = 100; for Skin NAD content of abdomen, %: 1% in lotion applied to back; for Skin NAD content of back, % / Skin NAD content of back: site of application, 1% in lotion; for Skin NAD content of back, %: once per day for three days; for Skin NAD content of back: topical once per day for three days. How it is done: In animal experiments, female hairless mice (HRS-J, 6-8 weeks old), received daily topical application of nicotinic acid esters, using 200 mg of commercially available “Vanicream” lotion, at a 1.0% (wt/wt) concentration, for three days. Control animals received Vanicream only.
Animals were euthanized, and dorsal and ventral skin samples were then frozen in liquid nitrogen, and stored at −80° C. In order to analyze NAD and protein content, tissue samples were homogenized, in 0.5M, ice cold HClO4, and then centrifuged at 3000 rpm for 15 minutes. The resulting supernatants were neutralized with ice-cold 2M KOH/0.66M KH2PO4, in order to determine NAD. The NAD was determined in accordance with Jacobson, et al., Meth. Enzymol. 280: 221-230 (1997) incorporated by reference, while a commercially available BCA method was used for protein determination.

Data set [3] has as its system endothelial cells of the blood capillaries. The settings on record: in vivo.
Experimental: as §1

Experimental for physchem: The lipophilicity is reported as log P values, where P refers to the octanol/water partition coefficient, described supra.
The Poct/w values for these compounds were determined in accordance with Hamisch, et al., J. Chromatog. […] In brief, this HPLC method determines capacity factor (“K′”) for each pronutrient, and also establishes a linear relationship between the logarithm of Poct/w and the logarithm of K′, for short chain pronutrients.

For `CCCCCCCCCCOC(=O)c1cccnc1` [10 carbons], in data set [1], the “Erythematous Response” value was “Slight”.

Take `CCCCCCCCOC(=O)c1cccnc1` [8 carbons, octyl nicotinate]: the “Skin oxygen content (PO2)” value in data set [2] is “increase in skin oxygen content”. The chromatographic logP in the data set “physchem” stood at 4.8. Besides, the “Erythematous Response” value in data set [1] is recorded as “Yes”.

Turning to `CCCCCCCCCCCCCCCOC(=O)c1cccnc1` [15 carbons], in data set [1], the “Erythematous Response” value is given as “No”.

Take `CCCCCCCCCCCCCCCCCCOC(=O)c1cccnc1` [18 carbons]: in the data set on skin of hairless mice, the “Effect on skin NAD content at site of application (in words)” value (“Effect on skin NAD content at site” for short) is recorded as “less effective”. In addition, the “Erythematous Response” value in data set [1] is recorded as “No”.

Take `CCCCOC(=O)c1cccnc1` [4 carbons]: in data set [1], the “Erythematous Response” value is “Yes”.

Regarding `CCCCCCCCCCCCCOC(=O)c1cccnc1` [13 carbons], in data set [1], the “Erythematous Response” value is reported as “No”.

Consider `COC(=O)c1cccnc1` [1 carbon], for which, in data set [1], the “Erythematous Response” value was “Yes”.

`CCCCCCCCCCCCCCOC(=O)c1cccnc1` [14 carbons]: in the data set with skin of hairless mice, the “Effect on NAD content of the abdomen (in words)” value (“Effect on NAD content” for short) is on record as “no increase”; the “Skin NAD content of abdomen” value is reported as 55.8 +/− 13.8 pmol NAD/mg tissue; the “Skin NAD content of abdomen, %” value is recorded as 92%; the “Skin NAD content of back, %” value turned out to be 181%. In the data set on skin of hairless mice, the “Skin NAD content of back” value is reported as 165.7 +/− 12.0 pmol NAD/mg tissue and the “Effect on skin NAD content at site” value is on record as “most effective”. Besides, the “Erythematous Response” value in data set [1] is reported as “No”.

`CCCCCCCCCCCCCCCCOC(=O)c1cccnc1` [16 carbons]: in the data set with skin of hairless mice, the “Effect on NAD content” value is on record as “no increase”; the “Skin NAD content of abdomen” value is recorded as 52.1 +/− 10.4 pmol NAD/mg tissue; the “Skin NAD content of abdomen, %” value was 86%; the “Skin NAD content of back, %” value is on record as 120%. For the same compound, in the data set with skin of hairless mice, the “Skin NAD content of back” value was 109.5 +/− 8.3 pmol NAD/mg tissue and the “Effect on skin NAD content at site” value was “increased NAD content”. Further, in data set [1], the “Erythematous Response” value was “No”.

For the compound `NC(=O)c1cccnc1` [Nicotinamide, reference compound], the “Effect on skin NAD content at site” value in the data set on skin of hairless mice is reported as “no effect”. Also, in data set [3], the “Erythematous Response” value is “No” and the “Vasodilation at the site of topical application” value was “does not cause vasodilation”. In “physchem”, this compound displayed a chromatographic logP of -0.34.

`CCCCCCCCCCCCOC(=O)c1cccnc1` [12 carbons]: in the data set with skin of hairless mice, the “Effect on NAD content” value is “some delivery to the abdomen”; the “Skin NAD content of abdomen” value was 82.6 +/− 14.8 pmol NAD/mg tissue; the “Skin NAD content of abdomen, %” value was 137%; the “Skin NAD content of back, %” value is 141%. In the data set on skin of hairless mice, the “Skin NAD content of back” value is 129.4 +/− 15.4 pmol NAD/mg tissue and the “Effect on skin NAD content at site” value is listed as “increased NAD content”. For the same compound, the “Erythematous Response” value in data set [1] was “No”.
